# Assay results as given in patent publication US20040259159A1, “Role of LDL receptor protein-1 (LRP-1) in Alzheimer's disease” (priority 2000, published 2004).
# Where a SMILES comes first, the peptide text is derived from it. The star is where a group is joined. Cbz = O=C(OCc1ccccc1)*
# Tests used:
# LRP-1 [1] = assay: LRP-1 levels in human brain endothelial cells exposed to Aβ (Western blot); format: cell-based; details: human BEC; for effect on LRP-1 levels (85 kDa β-subunit and 515 kDa α-subunit): greater than or equal to 1 μM, 48 hr; for effect on LRP-1 expression: low concentrations (less than 10 nM), within 48 hr
# Experimental: Human brain endothelial cells (BEC) were isolated from rapid autopsies of neurologically normal young individuals after trauma. BECs were characterized and cultured, and then incubated with different Aβ isoforms at concentrations ranging from 1 nM to 20 μM within 48 hr. Cells were lysed and equal amounts of proteins (10 μg/mi) were separated by 10% denaturing polyacrylamide gel electrophoresis (SDS-PAGE), transferred onto nitrocellulose membrane, and probed with 5A6 (β-chain) or 8G1 (α-chain) human anti-LRP-1-specific IgGs. The relative density of each protein was determined by scanning densitometry using β-actin as an internal control.
# [2] = Brain clearance model in mice: efflux of 125I-Aβ1-40 and 14C-inulin after intracerebral microinjection; format: in vivo, mice
# Experimental: Male C57BL/6 wild-type mice, 8-10 weeks old and 9-10 months old, and male apoE knockout mice (apoE KO) on a C57BL/6 background (Taconic Farm, German-town, N.Y.), 8-10 weeks old and 9-10 months old, were studied.
# A stainless steel guide cannula was implanted stereotaxically into the right caudate-putamen of anesthetized mice (60 mg/kg i.p. sodium pentobarbital). Coordinates for the tip of the cannula were 0.9 mm anterior and 1.9 mm lateral to bregma and 2.9 mm below the surface of the brain. The guide cannula and screw were fixed to the skull with methylmethacrylate (Plastics One, Roanoke, Va.) and a stylet introduced into the guide cannula.
# (§1) For radioisotope injection, animals were re-anesthetized and an injector cannula (Plastic One, Roanoke, Va.) attached with 24G-TEFLON tubing (Small Parts, Miami Lake, Fla.) to a 10 μl gas-tight microsyringe (Hamilton, Reno, Nev.) was used. The amount of injected tracers was determined accurately using a micrometer to measure linear displacement of the syringe plunger in the precalibrated microsyringe. […] When the effects of different molecular reagents were tested, those were injected simultaneously with the radiolabeled peptides.
# The analysis of radioactivity-disappearance curves from the brain was as reported (40, 43). The percentage of radioactivity remaining in the brain after microinjection was determined from eq. 1 as % Recovery in brain=100×(Nb/Ni) where, Nb is the radioactivity remaining in the brain at the end of the experiment and Ni is the radioactivity injected into the brain.
# Inulin was studied as a metabolically inert polar reference marker that is neither transported across the BBB nor retained by the brain (40); its clearance rate, i.e., kinulin, provides a measure of the ISF bulk flow and is calculated as Nb(inulin)/Ni(inulin)=exp (−kinulin*t) (2).
# For Aβ, there are two possible physiological pathways of elimination—direct transport across the BBB into the bloodstream and elimination by ISF bulk flow into the CSF and cervical lymphatics. It is also possible that Aβ is retained within the brain either by binding to its cell surface receptors directly as a free peptide and/or by binding to different transport proteins. Thus, according to the model, the fraction of Aβ remaining in the brain can be expressed as Nb(Aβ)/Ni(Aβ)=a1+a2*e^−k1*t (3), where a1=k2/(k1+k2) and a2=k1/(k1+k2), and k1 and k2 denote the fractional coefficients of total efflux from the brain and retention within the brain, respectively.
# The fractional rate constant of Aβ efflux across the BBB from brain parenchyma can be calculated by knowing the fractional rate coefficient of total efflux of Aβ and inulin as k3=k1−k(inulin) (4), i.e., as the difference between the fractional rate constant for total efflux of Aβ and the fractional rate constant of inulin. The half-saturation concentration for the elimination of Aβ by transport across the BBB, k0.5, was calculated from the equation [1−(Nb/Ni)]*100=Clmax/(k0.5+Ni) (5), where Clmax represents the maximal efflux capacity for the saturable component of Aβ clearance across the BBB corrected for peptide clearance by the ISF flow. Clmax is expressed as a percentage of the injected dose, [1−(Nb/Ni)]×100, cleared from brain by saturable BBB transport over 30 min.
# The MLAB mathematical modeling system (Civilized Software, Silver Spring, Md.) was used to fit the compartmental model to the disappearance curves or percent recovery data with inverse square weighting.
# LRP-1 [3] = assay: Pulse chase of [35S]-methionine labeled LRP-1 in human brain endothelial cells (half-life); format: cell-based
# Experimental: Human BEC (4×10^5) were pulsed for 1 hr at 37° C. with 400 μCi of [35S]-methionine (greater than 1000 Ci/mmol; Perkin Elmer, Boston, Mass.) in methionine-free Dulbecco modified Eagle medium (GIBCO BRL, New York, N.Y.). Cells were chased at indicated times within 48 hr. Cell lysates were immunoprecipitated with anti-LRP-1 515 kDa α-chain specific IgG (8G1) on SDS-PAGE. The intensity of signal was quantified in pixels using Storm 860 Phosphoimager (Amersham Biosciences, Piscataway, N.J.).
# [4] = design: species or system mice; details: mouse, in vivo
# Experimental: Brain, blood and CSF were sampled and prepared for radioactivity analysis. […] Brain, plasma and CSF samples were mixed with TCA (final concentration 10%), centrifuged at 14,000 rpm at 4° C. for 8 min to 10 min, and radioactivity in the precipitate, water and chloroform fractions determined in gamma counter (Wallac, Turku, Finland).
# The supernatant was then lyophilized. The resulting material was dissolved in 0.005% TFA in water, pH 2, before injection onto a C4 column (Vydac, The Separation Group, Hesperia, Calif.). […] Column eluants were monitored at 214 nm. The eluted fractions were collected and counted.
# For SDS-PAGE analysis, TCA precipitated samples were resuspended in 1% SDS, vortexed and incubated at 55° C. for 5 min, then neutralized, boiled for 3 min, homogenized and analyzed by electrophoresis in 10% Tris-tricine gels followed by fluorography.
# [5] = test system: brain clearance of ^125I-Aβ1-40; assay: Effect of molecular reagents on brain clearance of 125I-Aβ1-40 at 30 min; format: in vivo, mice; details: 125I-Aβ1-40 12 nM
# Experimental: as §1
# The next set of experiments was designed to characterize the BBB transport system responsible for the transcytosis of Aβ. […] Clearance of ^14C-inulin was not affected by any of the studied molecular reagents.
molecule,measurement,setting,value
mutant Aβ (Dutch/Iowa4o): synthetic Aβ peptide of 40 amino acids with Dutch/Iowa double mutation E22Q/D23N,effect on LRP-1 levels (85 kDa β-subunit and 515 kDa α-subunit),LRP-1 [1],progressively decreased
same,effect on LRP-1 expression,LRP-1 [1],do not alter significantly
^14C-Inulin,Retention in brain k,[2]; 60 nM,None
same,Retention in brain t½,[2]; 60 nM,None
same,Transport by BBB t½,[2]; 60 nM,None
same,Total Efflux k,"[2]; 60 nM 125I-Aβ1-40 with 14C-inulin, microinjection into caudate nucleus, mice",0.0029 ± 0.0002 min⁻¹
same,Total Efflux t½ (half-time for brain efflux),"[2]; 60 nM, microinjection into caudate nucleus, young mice",3.983 ± 0.208 h
same,Transport by ISF k,"[2]; 60 nM, ISF bulk flow",0.0029 ± 0.0002 min⁻¹
same,Transport by ISF t½,"[2]; 60 nM, ISF bulk flow",3.98 ± 0.208 h
same,Transport by BBB k,"[2]; 60 nM, k3=k1−k(inulin), eq. 4",None
CC(C)C[C@@H](C=O)NC(=O)[C@H](CC(C)C)NC(=O)[C@H](CC(C)C)NC(=O)OCc1ccccc1 [MG132] (Cbz-Leu-Leu-Leu-aldehyde),effect on t1/2 for LRP-1,"LRP-1 [3]; MG132 20 μM, both control and Aβ-treated cells",increased
Aβ1-40: synthetic wild-type amyloid-β peptide of 40 amino acids; in clearance text it means the radioiodinated tracer,effect on LRP-1 levels (85 kDa β-subunit and 515 kDa α-subunit),LRP-1 [1],progressively decreased
same,effect on LRP-1 expression,LRP-1 [1],do not alter significantly
same,half-saturation (K0.5) of the BBB efflux transport system,[2]; mouse,15.3 nM
same,Retention in brain t½,"[2]; mouse, in vivo",2.742 h
same,Transport by BBB t½,"[2]; mouse, in vivo",0.577 ± 0.06 h
same,elimination rate from brain at less than 2 nM faster than at a load of 60 nM,"[2]; mouse, in vivo",3.5 fold
same,rate k of clearance from the brain higher than that for inulin,"[2]; mouse, in vivo",7.9 fold
same,reduction of brain clearance in 9-month old apoE KO mice,"[2]; mouse, in vivo",46%
same,reduction of brain clearance in 9-month old wild-type mice,"[2]; mouse, in vivo",55%
same,reduction of brain clearance in young (2-month old) apoE KO mice,"[2]; mouse, in vivo",30%
same,dose remaining sequestered within the CNS,"[2]; mouse, in vivo, 5 h",15.6%
same,Total Efflux t½ (half-time for brain efflux),"[2]; mouse, not told",0.417 h
same,difference in half-time of brain efflux versus inulin,"[2]; mouse, not told",9.4 fold
same,degradation/metabolism in brain ISF prior to BBB transport,[4],not observed
Aβ1-42: synthetic wild-type amyloid-β peptide of 42 amino acids,effect on LRP-1 levels (85 kDa β-subunit and 515 kDa α-subunit),LRP-1 [1],progressively decreased
same,effect on LRP-1 expression,LRP-1 [1],do not alter significantly
same,t1/2 for LRP-1 in the presence of peptide,"LRP-1 [3]; 20 μM, control 9.6 hr, human BEC",6.4 h
"RAP: receptor associated protein, chaperone that antagonizes binding of LRP ligands to LRP-1 and LRP-2 (protein, UniProt P30533 35-357, looked up) Alpha-2-macroglobulin …: YSREKNQPKPSPKRESGEEFRMEKLNQLWEKAQRLHLPPVRLAELHADLKIQERDELAWKKLKLDGLDEDGEKEARLIRNLNVILAKYGLDGKKDARQVTSNSLSGTQEDGLDDPRLEKLWHKAKTSGKFSGEELDKLWREFLHHKEKVHEYNVLLETLSRTEEIHENVISPSDLSDIKGSVLHSRHTELKEKLRSINQGLDRLRRVSHQGYSTEAEFEEPRVIDLWDLAQSANLTDKELEAFREELKHFEAKIEKHNHYQKQLEIAHEKLRHAESVGDGERVSRSREKHALLEGRTKELGYTVKKHLQDLSGRISRARHNEL",reduction in Aβ clearance from the brain,"[5]; RAP 200 nM, versus vehicle",30%
same,decrease in Aβ clearance from the brain,[5]; RAP 5 μM,44%
